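Test compounds were applied to cells in 96-well plates for 48 hours at 5 doses. GI50 is the concentration that inhibits growth by half.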 Active and inactive are the calls of the source. No stated cut-off is given here; in the data, active = GI50 up to about 1.1 µM and inactive = higher.
Assays:
Assay in all cases: NCI-60 cell line screen, 48 h
DLD-1 = system: DLD-1
DMS-114 = system: DMS-114
DMS-273 = system: DMS-273
HOP-18 = system: HOP-18
LXFL 529 = system: LXFL 529
M19-MEL = system: M19-MEL
XF498 = system: XF498
KM-20L2 = system: KM-20L2
RXF 631 = system: RXF 631

Row | SMILES | GI50 (DLD-1) | GI50 (DMS-114) | GI50 (DMS-273) | GI50 (HOP-18) | GI50 (LXFL 529) | GI50 (M19-MEL) | GI50 (XF498) | GI50 (KM-20L2) | GI50 (RXF 631)
1 | C/C(=N\NC(=S)NNC(=S)N(C)c1ccccc1)c1ccccn1 | 0.618 µM (active) | 0.399 µM (active) | 1.46 µM (inactive) | 0.198 µM (active) | 0.815 µM (active) | 0.547 µM (active) | 14.1 µM (inactive) | – | –
2 | CCCCCCCCCCCCCCC(C)CCC(=O)O (stereo not drawn) | > 100 µM (inactive) | – | – | > 100 µM (inactive) | – | 47.2 µM (inactive) | 59.4 µM (inactive) | – | –
3 | CSc1nc(NC2OCC(OC(C)=O)C(OC(C)=O)C2OC(C)=O)c2c(n1)OCC2=O (stereo not drawn) | > 100 µM (inactive) | > 100 µM (inactive) | > 100 µM (inactive) | – | > 100 µM (inactive) | > 100 µM (inactive) | – | > 100 µM (inactive) | –
4 | Cc1cc(NS(=O)(=O)c2ccc(Nc3c4ccccc4nc4c(C(=O)N5CCN(CCO)CC5)ccc(Cl)c34)cc2)no1 | 52.5 µM (inactive) | > 100 µM (inactive) | > 100 µM (inactive) | – | – | > 100 µM (inactive) | > 100 µM (inactive) | > 100 µM (inactive) | 83.9 µM (inactive)
5 | CC1=C(O)/C(=C/C(C)CCC/C(C)=C/C=C/C(C)CCCc2ccoc2)OC1=O (stereo not drawn) | 31 µM (inactive) | 49.7 µM (inactive) | 55.3 µM (inactive) | – | 31.8 µM (inactive) | 48.3 µM (inactive) | 7.08 µM (inactive) | 29.6 µM (inactive) | –
6 | CC(=O)C(CN(C)Cc1ccccc1)C(c1ccccc1)c1c(O)c2ccccc2oc1=O (stereo not drawn) | > 100 µM (inactive) | > 100 µM (inactive) | > 100 µM (inactive) | – | > 100 µM (inactive) | > 100 µM (inactive) | – | 55.8 µM (inactive) | –
7 | O=C(c1ccccc1)c1cn(/N=C\c2ccccc2)c(=O)nc1-c1ccccc1 | > 100 µM (inactive) | > 100 µM (inactive) | – | > 100 µM (inactive) | > 100 µM (inactive) | > 100 µM (inactive) | – | > 100 µM (inactive) | –
8 | COCc1cc2c(s1)C(=O)C1=C(C2=O)C2(C=C(Br)C(=O)C(Br)=C2)CCN1 | 6.95 µM (inactive) | 1.73 µM (inactive) | 2.85 µM (inactive) | 15.1 µM (inactive) | 2.72 µM (inactive) | 1.46 µM (inactive) | 7.41 µM (inactive) | 0.184 µM (active) | –
9 | CCOc1ccc(/N=C\c2ccc3cc(C)ccc3n2)cc1 | 48.8 µM (inactive) | 31.1 µM (inactive) | 43.2 µM (inactive) | > 100 µM (inactive) | 30.5 µM (inactive) | 52.4 µM (inactive) | > 100 µM (inactive) | 34.7 µM (inactive) | > 100 µM (inactive)
10 | CC1C[C@H](C)CC(C(O)CC2CC(=O)N(Cc3ccccc3)C(=O)C2)C1O (stereo partly drawn) | > 100 µM (inactive) | > 100 µM (inactive) | > 100 µM (inactive) | > 100 µM (inactive) | > 100 µM (inactive) | > 100 µM (inactive) | – | > 100 µM (inactive) | –
11 | C[N+](C)(C)CC1CCCC(C[N+](C)(C)C)C1=NO (stereo not drawn) | > 100 µM (inactive) | – | > 100 µM (inactive) | > 100 µM (inactive) | > 100 µM (inactive) | > 100 µM (inactive) | > 100 µM (inactive) | > 100 µM (inactive) | –
12 | COC(=O)[C@H](C)[C@H]1CC[C@@](C)([C@H]2CC3C(C)(C)[C@H]4CCC(C)=C[C@H]4C[C@@]3(C)O2)OO1 (stereo partly drawn) | 12 µM (inactive) | 3.58 µM (inactive) | 12.6 µM (inactive) | – | 2.03 µM (inactive) | 13.2 µM (inactive) | 10 µM (inactive) | 13.4 µM (inactive) | –
13 | O/N=C1/C(=C/c2ccc3c(c2)OCO3)CCCC1C(NO)c1ccc2c(c1)OCO2 (stereo not drawn) | 28.4 µM (inactive) | 22.6 µM (inactive) | 21.8 µM (inactive) | 18.2 µM (inactive) | 20 µM (inactive) | 24.8 µM (inactive) | 22.7 µM (inactive) | 18.2 µM (inactive) | –
14 | NC(=O)C12CCC1C1CCCCC12N1CCOCC1 (stereo not drawn) | > 100 µM (inactive) | – | – | > 100 µM (inactive) | > 100 µM (inactive) | > 100 µM (inactive) | – | > 100 µM (inactive) | > 100 µM (inactive)
15 | CC(C)Cc1ccc(C(C)CC2=CCC(CN(C)C)C2=O)cc1 (stereo not drawn) | 2.33 µM (inactive) | 4.27 µM (inactive) | 4.41 µM (inactive) | 18.5 µM (inactive) | 1.73 µM (inactive) | 4.11 µM (inactive) | – | 11.4 µM (inactive) | 16.6 µM (inactive)

Reference: ChEMBL document CHEMBL1201862, “PubChem BioAssay data set” (2004)
